{"source": "patent US8017584B2", "about": "“GD3-mimetic peptides” (Otsuka Pharmaceutical Co., Ltd., priority 2000, dated 2011)", "key": {"[1]": {"tested_on": "GD3 antibody 4F6", "experiment": "ELISA of immobilized MAP-form GD3-mimetic peptides with anti-GD3 antibody (Example 3(3))", "type": "binding, mouse", "settings": "for ELISA absorbance, Anti-GD3 antibody: MAP form 100 ng/well", "description": "(§1) A 0.1M NaHCO3 solution containing each of the phage clones obtained in Example 1 (10^11, 10^10, or 10^9 titer/100 μL) was added to the wells of a 96-well microtiter plate (product of Nunc), for immobilization of the phage clones at room temperature for one hour. The supernatant was removed, then the wells were subjected to blocking by use of a blocking solution ([…]; TBS containing 1% BSA, 0.1% skim milk, and 0.02% Tween 20; pH 7.5) at 37° C. for four hours.\n(§2) The supernatant was removed, then GD3 antibody 4F6 (100 μL), serving as a primary antibody, was added to each well for reaction under shaking at room temperature for two hours. After completion of reaction, the supernatant was removed, then the wells were washed six times with a washing solution (400 μL for each well, TBS containing 0.05% Tween 20). Subsequently, a secondary antibody (anti-mouse IgG-HRP, product of Santa Cruz Biotechnology, catalogue No. SC-2031, Lot. No. C089) which was diluted 5,000-fold by use of a blocking solution prepared in advance was added to the wells (100 μL to each well) for reaction under shaking at room temperature for one hour. After completion of reaction, the wells were washed four times with a washing solution (400 μL for each well), then a detection reagent (TMB Microwell; product of KPL, Catalogue No. 50-76-04, Lot. No. WF075) was added to the wells (100 μL to each well), and the mixture was allowed to stand for five minutes at room temperature.\n(§3) 1N-Hydrochloric acid (100 μL) was added to each well for stopping the reaction. Absorbance of each well was measured at 450 nm and 620 nm, and “OD450-OD620” was calculated. A Multiscan (product of Labosystems) was used in measurement of absorbance. A well in which phages had not been immobilized served as a blank, and the absorbance of each well was determined by subtracting the blank value from the “as-measured” value.\n(§4) A 0.1M NaHCO3 solution containing a GD3-mimetic peptide of the invention in the above MAP form (100 ng/100 μL) was added to the wells of a 96-well micro-titer plate, for immobilization at room temperature for one hour. Subsequently, in a manner similar to the ELISA method employed in Example 2, binding affinity of the GD3-mimetic peptide to GD3 antibody 4F6 was investigated.\n(§5) Anti-GD2 antibody and anti-OAcGD3 antibody (Cerato, E., et al., Hybridoma, 16(4), 307-316 (1997)) were used as controls (these antibodies were kindly provided by from Dr. Portoukalian)."}, "[2]": {"tested_on": "GD3 antibody 4F6", "experiment": "ELISA of immobilized phage clones with GD3 antibody 4F6 (Example 2)", "type": "binding, mouse", "settings": "for absorbance OD450-OD620, binding to GD3 antibody 4F6: phage clone immobilized, duplicate lines", "description": "as §1, §2, §3"}, "[3]": {"tested_on": "T-cell-rich lymphocytes / IL-2-dependent CTLL2 cells", "experiment": "Cell response test: IL-2 activity (3H thymidine up-take of CTLL2 cells) in supernatant of spleen cells of mice immunized with GD3", "type": "cell-based, mouse", "settings": "for 3H Thymidine up-take into CTLL2 cells, mean ± SE (4 wells): mice immunized with GD3", "description": "Similar to the case of immunization with R4-KLH, antiserum samples were also prepared through immunization with GD3 (30 μg).\n(§6) The spleen aseptically removed from each of the above-immunized mice was minced in a 10% FCS-supplemented RPMI 1640 medium. By use of a nylon wool column, T-cell-rich lymphocytes were prepared and the cells were counted. The above medium containing the cells in an amount of 10^5 cells per 150 μL was added to each of the wells of a culture plate. PHA was added so as to attain a final concentration of 1 μg/mL. A peptide of the present invention or any of different gangliosides in PBS was added, and the mixture was incubated for 96 hours. A supernatant (100 μL) was obtained from each well. The IL-2 activity of the supernatant was determined through use of IL-2-dependent mouse cells, CTLL2. Briefly, the supernatant (100 μL) diluted 2 to 50-fold with a medium was added to the wells in an amount of 10^4 CTLL2 cells/well, followed by incubation at 37° C. for 48 hours. Subsequently, 3H-thymidine (0.5 μCi) was added to each well, followed by incubation for 6 hours. CTLL2 cells were recovered on a paper filter and counted for 3H."}, "[4]": {"tested_on": "T-cell-rich lymphocytes / IL-2-dependent CTLL2 cells", "experiment": "Cell response test: IL-2 activity (3H thymidine up-take of CTLL2 cells) in supernatant of spleen cells of mice immunized with R4 peptide (R4-KLH)", "type": "cell-based, mouse", "settings": "for 3H Thymidine up-take into CTLL2 cells, mean ± SE (4 wells): mice immunized with R4 peptide", "description": "Using a fusion peptide R4-KLH obtained in Example 3 (4) between GD3R4 and KLH or a MAP form fusion peptide R4MAP-KLH created between GD3R4 and KLH, immunization was performed as described in (1) above.\nBriefly, an emulsion mixed with an adjuvant (1:1, by volume) was administered to each member of groups of mice, each group consisting of 3 mice (CD-1), in an amount of 100 μL/mouse (for one administration (ip), peptide 30 μg/mouse) for immunization. In the case of R4-KLH, administration was performed every one week for one month, and subsequently every two weeks for one month; and in the case of R4MAP-KLH, every one week for 2 months. In any case, 4 days after the final immunization, blood was collected to thereby prepare antiserum samples.\nas §6"}, "[5]": {"tested_on": "Anti-GD2 antibody", "experiment": "ELISA of immobilized MAP-form peptides with control anti-GD2 antibody", "type": "binding", "settings": "MAP form 100 ng/well", "description": "as §4, §5"}, "[6]": {"tested_on": "Anti-OAcGD3 antibody", "experiment": "ELISA of immobilized MAP-form peptides with control anti-OAcGD3 antibody", "type": "binding", "settings": "MAP form 100 ng/well", "description": "as §4, §5"}, "[7]": {"settings": "stimulant 1 μg/ml, supernatant dilution 1/20"}, "[8]": {"settings": "stimulant 1 μg/ml, supernatant dilution 1/50"}, "[9]": {"settings": "stimulant 1 μg/ml, supernatant dilution ½"}, "[10]": {"settings": "stimulant 1 μg/ml, supernatant dilution ⅕"}, "[11]": {"settings": "stimulant 2 μg/ml, supernatant dilution 1/20"}, "[12]": {"settings": "stimulant 2 μg/ml, supernatant dilution 1/50"}, "[13]": {"settings": "stimulant 2 μg/ml, supernatant dilution ½"}, "[14]": {"settings": "stimulant 2 μg/ml, supernatant dilution ⅕"}, "[15]": {"settings": "stimulant 5 μg/ml, supernatant dilution 1/20"}, "[16]": {"settings": "stimulant 5 μg/ml, supernatant dilution 1/50"}, "[17]": {"settings": "stimulant 5 μg/ml, supernatant dilution ½"}, "[18]": {"settings": "stimulant 5 μg/ml, supernatant dilution ⅕"}}, "note": "Several values for one entry are separate records, joined by “and”; a condition that tells them apart may be missing. Equal values may be shown once.", "data": [{"sequence": "RHAYRSMAEWGFLYS (RHAYRSMAQWGFLYS) [GD3R4, tested as phage clone, MAP form or peptide]", "values": [{"measurement": "binding to the anti-GD3 antibody", "setting": "[1]", "result": "stronger bonding to the anti-GD3 antibody"}, {"measurement": "ELISA absorbance, Anti-GD3 antibody", "setting": "[1]; Serum % 12.50%", "result": 0.144}, {"measurement": "ELISA absorbance, Anti-GD3 antibody", "setting": "[1]; Serum % 25%", "result": 0.229}, {"measurement": "ELISA absorbance, Anti-GD3 antibody", "setting": "[1]; Serum % 50%", "result": 0.309}, {"measurement": "ELISA absorbance, Anti-GD3 antibody", "setting": "[1]; Serum % 100%", "result": 0.381}, {"measurement": "absorbance OD450-OD620, binding to GD3 antibody 4F6", "setting": "[2]; 10^9 titer/well", "result": "0.109 and 0.116"}, {"measurement": "absorbance OD450-OD620, binding to GD3 antibody 4F6", "setting": "[2]; 10^10 titer/well", "result": "0.14 and 0.102"}, {"measurement": "absorbance OD450-OD620, binding to GD3 antibody 4F6", "setting": "[2]; 10^11 titer/well", "result": "0.386 and 0.315"}, {"measurement": "binding affinity to GD3 antibody 4F6 (words, FIG. 1)", "setting": "[2]; phage clones", "result": "strongest binding affinity"}, {"measurement": "IL-2 production by T-cell-rich lymphocytes", "setting": "[3]; lymphocytes from GD3-immunized mouse", "result": "production of IL-2 has been confirmed"}, {"measurement": "3H Thymidine up-take into CTLL2 cells, mean ± SE (4 wells)", "setting": "[3]; [7]", "result": "1994 ± 348"}, {"measurement": "3H Thymidine up-take into CTLL2 cells, mean ± SE (4 wells)", "setting": "[3]; [8]", "result": "881 ± 127"}, {"measurement": "3H Thymidine up-take into CTLL2 cells, mean ± SE (4 wells)", "setting": "[3]; [9]", "result": "5867 ± 1213"}, {"measurement": "3H Thymidine up-take into CTLL2 cells, mean ± SE (4 wells)", "setting": "[3]; [10]", "result": "3418 ± 749"}, {"measurement": "3H Thymidine up-take into CTLL2 cells, mean ± SE (4 wells)", "setting": "[3]; [11]", "result": "3248 ± 613"}, {"measurement": "3H Thymidine up-take into CTLL2 cells, mean ± SE (4 wells)", "setting": "[3]; [12]", "result": "1274 ± 156"}, {"measurement": "3H Thymidine up-take into CTLL2 cells, mean ± SE (4 wells)", "setting": "[3]; [13]", "result": "12671 ± 1643"}, {"measurement": "3H Thymidine up-take into CTLL2 cells, mean ± SE (4 wells)", "setting": "[3]; [14]", "result": "8349 ± 1014"}, {"measurement": "3H Thymidine up-take into CTLL2 cells, mean ± SE (4 wells)", "setting": "[3]; [15]", "result": "7526 ± 839"}, {"measurement": "3H Thymidine up-take into CTLL2 cells, mean ± SE (4 wells)", "setting": "[3]; [16]", "result": "2684 ± 387"}, {"measurement": "3H Thymidine up-take into CTLL2 cells, mean ± SE (4 wells)", "setting": "[3]; [17]", "result": "14237 ± 1884"}, {"measurement": "3H Thymidine up-take into CTLL2 cells, mean ± SE (4 wells)", "setting": "[3]; [18]", "result": "11358 ± 1563"}, {"measurement": "activation of T cells", "setting": "[4]; R4-KLH-immunized mice", "result": "T cells have been confirmed to have activated"}, {"measurement": "3H Thymidine up-take into CTLL2 cells, mean ± SE (4 wells)", "setting": "[4]; [7]", "result": "2420 ± 561"}, {"measurement": "3H Thymidine up-take into CTLL2 cells, mean ± SE (4 wells)", "setting": "[4]; [8]", "result": "1017 ± 182"}, {"measurement": "3H Thymidine up-take into CTLL2 cells, mean ± SE (4 wells)", "setting": "[4]; [9]", "result": "6781 ± 1549"}, {"measurement": "3H Thymidine up-take into CTLL2 cells, mean ± SE (4 wells)", "setting": "[4]; [10]", "result": "4413 ± 854"}, {"measurement": "3H Thymidine up-take into CTLL2 cells, mean ± SE (4 wells)", "setting": "[4]; [11]", "result": "7934 ± 1031"}, {"measurement": "3H Thymidine up-take into CTLL2 cells, mean ± SE (4 wells)", "setting": "[4]; [12]", "result": "2742 ± 751"}, {"measurement": "3H Thymidine up-take into CTLL2 cells, mean ± SE (4 wells)", "setting": "[4]; [13]", "result": "15383 ± 2194"}, {"measurement": "3H Thymidine up-take into CTLL2 cells, mean ± SE (4 wells)", "setting": "[4]; [14]", "result": "10375 ± 1708"}, {"measurement": "3H Thymidine up-take into CTLL2 cells, mean ± SE (4 wells)", "setting": "[4]; [15]", "result": "8354 ± 957"}, {"measurement": "3H Thymidine up-take into CTLL2 cells, mean ± SE (4 wells)", "setting": "[4]; [16]", "result": "3058 ± 568"}, {"measurement": "3H Thymidine up-take into CTLL2 cells, mean ± SE (4 wells)", "setting": "[4]; [17]", "result": "18692 ± 2310"}, {"measurement": "3H Thymidine up-take into CTLL2 cells, mean ± SE (4 wells)", "setting": "[4]; [18]", "result": "12657 ± 1624"}, {"measurement": "ELISA absorbance, Anti-GD2 antibody", "setting": "[5]; Serum % 12.50%", "result": 0.061}, {"measurement": "ELISA absorbance, Anti-GD2 antibody", "setting": "[5]; Serum % 25%", "result": 0.072}, {"measurement": "ELISA absorbance, Anti-GD2 antibody", "setting": "[5]; Serum % 50%", "result": 0.103}, {"measurement": "ELISA absorbance, Anti-GD2 antibody", "setting": "[5]; Serum % 100%", "result": 0.149}, {"measurement": "ELISA absorbance, Anti-OAcGD3 antibody", "setting": "[6]; Serum % 12.50%", "result": 0.045}, {"measurement": "ELISA absorbance, Anti-OAcGD3 antibody", "setting": "[6]; Serum % 25%", "result": 0.043}, {"measurement": "ELISA absorbance, Anti-OAcGD3 antibody", "setting": "[6]; Serum % 50%", "result": 0.047}, {"measurement": "ELISA absorbance, Anti-OAcGD3 antibody", "setting": "[6]; Serum % 100%", "result": 0.061}]}]}
